Results taken from US11104648B2, “Pyrazole derivative” (Zhejiang Research Institute of Chemical Industry Co., Ltd., priority 2018, dated 2021).
Read-outs that look alike come from different tables or passages of the source.

What was measured:
Assay type in all cases: in vivo
[1] = test system: Tetranychus cinnabarinus Nymphs; experiment: Activity assay of Tetranychus cinnabarinus nymphs (spray on broad bean leaves)
Experimental: According to the solubility of the test compound, the crude drug was dissolved in N, N-dimethylformamide, and then prepared into a test solution of the desired concentration with 1‰ Tween 80 aqueous solution. The content of N,N-dimethylformamide in the solution should not exceed 10%.
The broad bean leaves with petioles were cut and inserted into a small bottle with water. A certain number of brightly colored, active female adult mites were placed, 24h later, adult mites were removed, and leaves with insufficient eggs were removed. When eggs were hatched and grew into nymphs, spray treatment was performed. The experiment was repeated three times, and a blank control was set, and placed to an observation room (26±2° C., humidity 70%˜80%, 16h light per day) for culture. 48 h later, the results were investigated. The nymphs were gently touched during investigation, and if no response, they were regarded as deaths.

[2] = test system: Eggs of Tetranychus Cinnabarinus; experiment: Activity assay of eggs of Tetranychus cinnabarinus (spray method, ovicidal); conditions: Tetranychus cinnabarinus; for pest or weed control at 2 µg/mL: concentration 2 mg/L; for pest or weed control at 5 µg/mL: concentration 5 mg/L, non-incubated eggs counted as dead
Experimental: According to the solubility of the test compound, the crude drug was dissolved in N N-dimethylformamide, and then prepared into a test solution of the desired concentration with 1‰ Tween 80 aqueous solution. The content of N. N-dimethylformamide in the solution should not exceed 10%.
Spray method. The broad bean leaves with petioles were cut and inserted into a bottle with water. A certain number of female mites were placed, 24h later, adult mites were removed, and spray treatment was performed in 24 h. The experiment was repeated three times, and a blank control was set, and placed to an observation room (26±2° C., humidity 70%˜80%, 16h light per day) for culture. When the blank control group was incubated, the results were investigated. The non-incubated ones were used as death for investigation.

[3] = test system: adult Tetranychus cinnabarinus; experiment: Activity assay of adult Tetranychus cinnabarinus (whole-plant spray on bean seedlings); conditions: 48 h; for pest or weed control at 1.25 µg/mL: concentration 1.25 mg/L; for pest or weed control at 2.5 µg/mL: concentration 2.5 mg/L
Experimental: According to the solubility of the test compound, the crude drug was dissolved in N, N-dimethlfornamide, and then prepared into a test solution of the desired concentration with 1‰ Tween 80 aqueous solution. The content of N,N-dimethylformamide in the solution should not exceed 10%.
Two euphylla bean seedlings were taken, after inoculated with adult Tetranychus cinnabarinus and the base number was investigated, whole plants were sprayed with a hand-held sprayer. The experiment was repeated three times for each treatment, after treatment, placed in a standard observation room after treatment, to investigate the survival number of mites in 48 hand calculate the death rate.

[4] = 48 h, concentration 2.5 mg/L, read-out: nymph-killing activity
[5] = 48 h, nymphs, concentration 0.5 mg/L, parallel determination, read-out: Death rate (%)
[6] = spray, read-out: ovicidal activity
[7] = eggs, parallel determination, read-out: Death rate (%)
[8] = adult mites, parallel determination, read-out: Death rate (%)
[9] = read-out: adult mite-killing activity
[10] = 48 h, concentration 2 mg/L, read-out: nymph-killing activity

| Structure (SMILES) | pest or weed control at 2.5 µg/mL [1, 4] [%] | pest or weed control at 5 µg/mL [2, 6] [%] | pest or weed control at 2.5 µg/mL [3, 9] [%] | further results |
| --- | --- | --- | --- | --- |
| CCCC(=O)OCOC(=C(C#N)c1ccc(C(C)(C)C)cc1)c1ccccc1C(F)(F)F [Compound 8-4, reference compound] | < 80 | < 30 | < 80 | pest or weed control at 0.5 µg/mL ([1]; 48 h, concentration 0.5 mg/L, read-out: nymph-killing activity): < 30%; pest or weed control at 0.5 µg/mL [1, 5]: 15%; pest or weed control at 2 µg/mL [2, 6]: 0%; pest or weed control at 2 µg/mL [2, 7]: 0%; pest or weed control at 1.25 µg/mL [3, 8]: 50%; pest or weed control at 1.25 µg/mL [3, 9]: < 50% |
| Cc1nn(C)c(/C(OCOC(=O)Cc2ccccc2)=C(\C#N)c2ccc(C(C)(C)C)cc2)c1Cl [Compound 90] | – | ≥ 90 | ≥ 90 | pest or weed control at 2.5 µg/mL ([1]; concentration 2.5 mg/L, 48 h, read-out: nymph-killing activity): ≥ 95% |
| CCn1nc(C)cc1/C(OCOC(=O)OCCSC)=C(\C#N)c1ccc(C(C)(C)C)cc1 [Compound 567] | ≥ 95 | ≥ 90 | ≥ 90 | – |
| Cc1nn(C)c(/C(OC(C)OC(=O)C(C)(C)C)=C(\C#N)c2ccc(C(C)(C)C)cc2)c1C (stereo not drawn) [Compound 180] | ≥ 95 | ≥ 90 | ≥ 90 | – |
| CCn1nc(C)cc1/C(OCOC(=O)COC)=C(\C#N)c1ccc(C(C)(C)C)cc1 [Compound 233] | ≥ 95 | ≥ 90 | ≥ 90 | – |
| CCCCC(=O)OCO/C(=C(/C#N)c1ccc(C(C)(C)C)cc1)c1c(Cl)c(C)nn1CC [Compound 306] | ≥ 95 | ≥ 90 | ≥ 90 | – |
| CCCCOC(=O)OCO/C(=C(/C#N)c1ccc(C(C)(C)C)cc1)c1cc(C)nn1C [Compound 456] | ≥ 95 | ≥ 90 | ≥ 90 | – |
| Cc1nn(C)c(/C(OC(C)OC(=O)c2ccccc2)=C(\C#N)c2ccc(C(C)(C)C)cc2)c1Cl (stereo not drawn) [Compound 114] | ≥ 95 | ≥ 90 | ≥ 90 | – |
| CCn1nc(C)cc1/C(OC(C)OC(=O)COC)=C(\C#N)c1ccc(C(C)(C)C)cc1 (stereo not drawn) [Compound 258] | ≥ 95 | ≥ 90 | ≥ 90 | – |
| Cc1nn(C)c(/C(OC(C)OC(=O)CC(C)C)=C(\C#N)c2ccc(C(C)(C)C)cc2)c1C (stereo not drawn) [Compound 182] | ≥ 95 | ≥ 90 | ≥ 90 | – |
| CCn1nc(C)c(C)c1/C(OC(C)OC(=O)OCC(C)C)=C(\C#N)c1ccc(C(C)(C)C)cc1 (stereo not drawn) [Compound 969] | ≥ 95 | ≥ 90 | ≥ 90 | pest or weed control at 2 µg/mL [1, 10]: ≥ 90%; pest or weed control at 2 µg/mL [2, 6]: ≥ 90%; pest or weed control at 1.25 µg/mL [3, 9]: ≥ 90% |
| CCn1nc(C)cc1/C(OC(C)OC(=O)OC)=C(\C#N)c1ccc(C(C)(C)C)cc1 (stereo not drawn) [Compound 579] | ≥ 95 | ≥ 90 | ≥ 90 | pest or weed control at 2 µg/mL [1, 10]: ≥ 90%; pest or weed control at 2 µg/mL [2, 6]: ≥ 90%; pest or weed control at 1.25 µg/mL [3, 9]: ≥ 90% |
| CCC(C)(C)C(=O)OC(C)O/C(=C(/C#N)c1ccc(C(C)(C)C)cc1)c1cc(C)nn1C (stereo not drawn) [Compound 41] | ≥ 95 | ≥ 90 | ≥ 90 | – |
| CCn1nc(C)c(C)c1/C(OCOC(=O)COC)=C(\C#N)c1ccc(C(C)(C)C)cc1 [Compound 383] | ≥ 95 | ≥ 90 | ≥ 90 | – |
| CCC(C)(C)C(=O)OCO/C(=C(/C#N)c1ccc(C(C)(C)C)cc1)c1cc(C)nn1C [Compound 16] | ≥ 95 | ≥ 90 | ≥ 90 | – |
| COC(=O)OCO/C(=C(/C#N)c1ccc(C(C)(C)C)cc1)c1cc(C)nn1C [Compound 451] | ≥ 95 | ≥ 90 | ≥ 90 | – |
| CCC(C)(C)C(=O)OCO/C(=C(/C#N)c1ccc(C(C)(C)C)cc1)c1c(Cl)c(C)nn1C [Compound 91] | ≥ 95 | ≥ 90 | ≥ 90 | – |
| CCn1nc(C)c(C)c1/C(OCOC(=O)CC(C)C)=C(\C#N)c1ccc(C(C)(C)C)cc1 [Compound 382] | ≥ 95 | ≥ 90 | ≥ 90 | – |
| COCC(=O)OCO/C(=C(/C#N)c1ccc(C(C)(C)C)cc1)c1c(Cl)c(C)nn1C [Compound 83] | ≥ 95 | ≥ 90 | ≥ 90 | – |
| Cc1cc(/C(OC(C)OC(=O)C2CC2)=C(\C#N)c2ccc(C(C)(C)C)cc2)n(C)n1 (stereo not drawn) [Compound 34] | ≥ 95 | ≥ 90 | ≥ 90 | – |
| C=CC(=O)OC(C)O/C(=C(/C#N)c1ccc(C(C)(C)C)cc1)c1c(Cl)c(C)nn1C (stereo not drawn) [Compound 117] | ≥ 95 | ≥ 90 | ≥ 90 | – |
| C#CCOC(=O)OC(C)O/C(=C(/C#N)c1ccc(C(C)(C)C)cc1)c1cc(C)nn1CC (stereo not drawn) [Compound 604] | ≥ 95 | ≥ 90 | ≥ 90 | – |
| CCn1nc(C)cc1/C(OCOC(=O)C1CC1)=C(\C#N)c1ccc(C(C)(C)C)cc1 [Compound 234] | ≥ 95 | ≥ 90 | ≥ 90 | pest or weed control at 2 µg/mL [1, 10]: ≥ 90%; pest or weed control at 0.5 µg/mL [1, 5]: 96%; pest or weed control at 2 µg/mL [2, 6]: ≥ 90%; pest or weed control at 2 µg/mL [2, 7]: 100%; pest or weed control at 1.25 µg/mL [3, 8]: 100%; pest or weed control at 1.25 µg/mL [3, 9]: ≥ 90% |
| CCn1nc(C)c(Cl)c1/C(OCOC(=O)OC)=C(\C#N)c1ccc(C(C)(C)C)cc1 [Compound 739] | ≥ 95 | ≥ 90 | ≥ 90 | – |
| Cc1nn(C)c(/C(OCOC(=O)C(C)(C)C)=C(\C#N)c2ccc(C(C)(C)C)cc2)c1Cl [Compound 80] | ≥ 95 | ≥ 90 | ≥ 90 | – |
| C=CC(=O)OCO/C(=C(/C#N)c1ccc(C(C)(C)C)cc1)c1cc(C)nn1C [Compound 17] | ≥ 95 | ≥ 90 | ≥ 90 | – |
| CCCC(=O)OC(C)O/C(=C(/C#N)c1ccc(C(C)(C)C)cc1)c1c(Cl)c(C)nn1CC (stereo not drawn) [Compound 328] | ≥ 95 | ≥ 90 | ≥ 90 | – |
| CCn1nc(C)c(C)c1/C(OCOC(=O)C(C)(C)C)=C(\C#N)c1ccc(C(C)(C)C)cc1 [Compound 380] | ≥ 95 | ≥ 90 | ≥ 90 | – |
